Laboratory results: patent publication US6811990B1, “Methods and compositions for coupled luminescent assays” (priority 2001, dated 2004)
Where two headings read alike, the source gives them in different places.

Assays:
[1] = test system: G3PDH or PGK; test: Stop reagent test in DeathTRAK reaction with G3PDH test enzyme; assay type: biochemical; conditions: ~3 mM final BPV, added after 21 minutes, with and without added PGK
Description: In another aspect, the present invention provides methods and compositions for a single-timepoint coupled luminescent assay, making use of a stop reagent to end the production of the high-energy molecule that is the luciferase substrate, while allowing the luciferase reaction to continue. In a preferred embodiment of this concept, an inhibitor of G3PDH or PGK is used to stop production of ATP in the DeathTRAK reactions of Examples 1 and 2. […] It is also possible to perform a single read without a stop reagent, but the stop reagent allows the read to be done at a time convenient to the user, multiple times, or for an extended period. […] Any molecule which inhibits G3PDH and/or PGK, but inhibits luciferase to a lesser or insignificant degree, might be used.
To a 0.5-mL aliquot of this cocktail, 0.0016 mL of 1:1,000,000-diluted PGK were added (termed “+PGK” cocktail). Two 0.045-mL aliquots of the standard unoptimized cocktail and two 0.045-mL aliquots of the “+PGK” cocktail were measured into a luminescent microtiter plate. 0.005 mL of 1:100,000-diluted G3PDH was transferred to each of these four aliquots of cocktail. […] Use of this or an alternative stop reagent allows the user to delay reading the plate, while maintaining the relative signal strengths of the samples.

[2] = test system: E. coli; test: Colony-forming unit (CFU) tests of antibiotic-treated cultures; assay type: cell-based; conditions: E. coli cultures plated at various dilutions
[3] = test system: E. coli strain K1; test: DeathTRAK proliferation/viability mode after polymyxin B/lysozyme lysis, antibiotics on E. coli; assay type: cell-based; conditions: for Proliferation/Viability: E. coli, Table V, DeathTRAK readout after lytic agent
Procedure: (§1) FIGS. 13-15 illustrate the use of cytotoxicity/proliferation mode to characterize the effects of various antibiotics on E. coli cells. First, the cytotoxicity signal was obtained by adding the DeathTRAK reagent cocktail directly to the toxicity reaction, three hours after the antibiotics were added to the E. coli culture. The luminance was measured and recorded (FIG. 13), whereupon the lytic agent was added, and the luminance was immediately measured again (FIG. 14).
(§2) E. coli (strain K1, obtained from Dr. Craig Rubens of Children's Hospital and Regional Medical Center, Seattle, Wash.) were inoculated from a frozen permanent into 1-2 mL of LB, grown overnight, diluted 1:20 into LB, grown a further 106 minutes at 37C with 240 rpm shaking, harvested by centrifugation, washed twice with LB, and resuspended to a final A600 of 1.549. It was determined by colony-forming unit assays that an A600 of 2.18 corresponds to ˜3.02×10^8 cells/mL. This was diluted to 200,000/mL and a 10% volume of 10 mM dithiothreitol and 1% protease inhibitor cocktail in LB was added (yielding 0.1% protease inhibitor cocktail after mixing). 55 μL of this mixture was distributed to each test well of a 96-well white luminance microtiter plate, whereupon 5 μL of antibiotic or PBS (vehicle) was added. The plate was shaken at 240 rpm for 3 hours at 37C. 40 μL of DeathTRAK cocktail was then added and luminance was read for ˜8 minutes. The lytic agent was then made up as equal parts 6000 units/mL polymyxin B and 50% lysozyme, both in PBS. 10 μL of this lytic agent was added to each well and the second luminance readout (proliferation/viability) was taken.

[4] = test system: E. coli strain K1; test: DeathTRAK cytotoxicity mode, antibiotics on E. coli
Procedure: as §1, §2

[5] = test system: Group-A Streptococci
Procedure: (§3) The A600 was 0.356. […] After washing the cells were grown for 90 minutes at 37C with 240 rpm shaking. Antibiotics or PBS (vehicle) were then added in 5 μL, and the protective cocktail containing dithiothreitol and protease inhibitor cocktail was added in a further 5 μL. The cells were incubated at 37C with 240 rpm shaking for a further 90 minutes, whereupon the DeathTRAK cocktail was added and the cytotoxicity read as described above for Gram negatives. The total-lysis agent, 10 μL of 2% Nonidet P-40, was then added, and the proliferation/viability signal was read as above for Gram negatives.

[6] = test system: Group-A Streptococci; test: DeathTRAK cytotoxicity mode, antibiotics on Group-A Streptococci; conditions: 90 minutes with antibiotic (FIG. 16)
Procedure: as §3

[7] = test system: Group-A Streptococci; test: DeathTRAK proliferation/viability mode after Nonidet P-40 lysis, Group-A Streptococci; assay type: cell-based, Group-A Streptococcus; conditions: 90 minutes with antibiotic, after Nonidet P-40 lysis (FIG. 17)
Description: These are Gram positive organisms. […] However, both cytotoxicity and proliferation effects are seen. […] Finally, the result with gentamicin is distinctive.

[8] = test system: DeathTRAK signal; test: Effect of detergent on the DeathTRAK signal; assay type: biochemical; conditions: at 0.1% Nonidet P-40; changes very little above approximately 0.1%
Description: FIG. 12 illustrates the use of cytotoxicity/proliferation mode to measure both the cytotoxic effects and the total cell number after addition of the detergent Nonidet P40 to the mammalian cell line 841 CON. Similar results have been obtained with the PC-3 prostate cancer and T24 bladder-cancer cell lines. In these experiments, the detergent is used as both the toxin and the final lytic agent. Thus the cytotoxicity signal in FIG. 12 represents the signal obtained after the indicated quantities of detergent were added to the cells, and the proliferation signal in the same figure represents the signals obtained after an additional 0.2% Nonidet P-40 was added to all the cells. […] Thus Nonidet P-40 can be used as the universal lytic agent for measuring proliferation of mammalian cells, provided that if it is desired to compare the cytotoxicity and proliferation signals, the final signal must be corrected for the inhibitory effect of the detergent. If the final detergent concentration used is above approximately 0.1%, then this correction will consist essentially of multiplication by a constant. However, if proliferation signals alone are to be compared, this correction is not necessary. Note that in FIG. 12, the proliferation signal is fairly constant. This is because each experiment began with the same number of cells seeded into each well. […]

[9] = E. coli K1, three hours with antibiotic, after lytic agent (FIG. 14)

Compound	toxicity by CFU assay [2]	effect on proliferation/viability [3, 9]	Proliferation/Viability [3]	Cytotoxicity [4]	cytotoxicity signal [4]	cytotoxicity signal [6]	proliferation/viability signal [7]	further results
O=C(O)C(=O)CBr [BPV, bromopyruvic acid]								increase in luminance (ATP production) in DeathTRAK reaction [1]: stopped the increase in luminance
CC1(C)S[C@@H]2[C@H](NC(=O)C(C(=O)O)c3ccccc3)C(=O)N2[C@H]1C(=O)O (some centres unmarked) [Carbenicillin]	toxic	strong inhibitory effect on proliferation/viability	+	+	strong cytotoxicity			cytotoxicity signal [5]: identified as a lytic agent
Nc1ccc(S(N)(=O)=O)cc1 [Sulfanilamide]		no toxicity or effect on proliferation/viability		−	no toxicity			
CN[C@H](CC(C)C)C(=O)N[C@H]1C(=O)N[C@@H](CC(N)=O)C(=O)N[C@H]2C(=O)N[C@H]3C(=O)N[C@H](C(=O)N[C@H](C(=O)O)c4cc(O)cc(O)c4-c4cc3ccc4O)[C@H](O)c3ccc(c(Cl)c3)Oc3cc2cc(c3O[C@@H]2O[C@H](CO)[C@@H](O)[C@H](O)[C@H]2O[C@H]2C[C@](C)(N)[C@H](O)[C@H](C)O2)Oc2ccc(cc2Cl)[C@H]1O [Vancomycin]	toxic	slight inhibition of proliferation/viability	+			little or no direct cytotoxicity	very strong reduction in the proliferation/viability signal	cytotoxicity signal ([4]; E. coli K1, three hours after antibiotics were added (FIG. 13)): slight but statistically significant toxicity; Cytotoxicity ([4]; E. coli, Table V, DeathTRAK cytotoxicity readout): +
Gentamicin			+			negative toxicity signal	strongly toxic	effect on proliferation/viability ([3]; E. coli K1, similar experiment, 90 minutes (FIG. 15)): strong effect on proliferation/viability; Cytotoxicity ([4]; E. coli K1, 90 minutes (FIG. 15)): no cytotoxicity
Nonidet P-40								inhibition of DeathTRAK signal [8]: approximately 45%
